Measurements published in patent US11406699B2 (priority 2019, dated 2022).
Values joined by “and” are separate entries in the source; they are usually repeats but may differ in a detail not shown here. Equal values may be shown once.

Columns and labels:
VEEV TC-83 [1] = experiment: microbe, parasite or virus in culture; assay type: cell-based; conditions: Venezuelan equine encephalitis virus, Vero, read-out: effective concentration 50% (EC50)
in vitro = conditions: African green monkey
EEEV FL93-939 TaV-nLuc = experiment: microbe, parasite or virus in culture; assay type: cell-based; conditions: Eastern equine encephalitis virus, Vero, 24 h
SINV = assay type: cell-based, Sindbis virus
CHIKV = assay type: cell-based, chikungunya virus
VEEV TC-83 [2] = assay type: cell-based, Venezuelan equine encephalitis virus
VEEV ZPC738 TaV-nLuc = experiment: microbe, parasite or virus in culture; assay type: cell-based; conditions: Venezuelan equine encephalitis virus, Vero, 24 h

SMILES: CC(=O)c1c(O)c(C)c(O)c(Cc2c(O)c3c(c(C(=O)/C=C/c4ccccc4)c2O)OC(C)(C)C=C3)c1O [Rottlerin]
- EC50 (VEEV TC-83 [1]): < 1000 nM
- CC50 (in vitro): 63000 nM
- EC50 (EEEV FL93-939 TaV-nLuc): 1700 nM
- decrease in SINV replication (SINV): 5 log
- decrease in CHIKV replication (CHIKV): 3 log
- decrease in VEEV TC-83 replication (VEEV TC-83 [2]): 2 log and 3 log
- EC50 (VEEV ZPC738 TaV-nLuc): 1100 nM
